According to US8952024B2, “Herbicidal pyrimidone derivatives” (E I du Pont de Nemours and Company, priority 2009, dated 2015):

What was measured:
Test in all cases: Test B pre-/postemergence plant response
Type in all cases: in vivo
corn (Zea mays) = settings: for Corn plant response rating (0 to 100 scale): 62 g ai/ha, postemergence, 0 is no effect, 100 is complete control; for Plant response rating, Corn: Postemergence
Procedure, shortened: (§1)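 Visually scored on a 0 to 100 scale after 13 to 15 days in greenhouse versus controls. Treatments were preemergence on seeded loam/sand soil and postemergence on 1- to 4-leaf plants.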

[1] = system: large crabgrass (Digitaria sanguinalis); settings: for Crabgrass, Large plant response rating (0 to 100 scale): 62 g ai/ha, postemergence, 0 is no effect, 100 is complete control; for Plant response rating, Crabgrass, Large: Postemergence
Procedure, shortened: as §1

[2] = system: yellow nutsedge (Cyperus esculentus); settings: for Nutsedge, Yellow plant response rating (0 to 100 scale): 62 g ai/ha, postemergence, 0 is no effect, 100 is complete control; for Plant response rating, Nutsedge, Yellow: Postemergence
Procedure, shortened: as §1

soybean (Glycine max) = settings: for Soybean plant response rating (0 to 100 scale): 62 g ai/ha, postemergence, 0 is no effect, 100 is complete control; for Plant response rating, Soybean: Postemergence
Procedure, shortened: as §1

[3] = system: giant foxtail (Setaria faberii); settings: for Foxtail, Giant plant response rating (0 to 100 scale): 62 g ai/ha, postemergence, 0 is no effect, 100 is complete control; for Plant response rating, Foxtail, Giant: Postemergence
Procedure, shortened: as §1

[4] = system: woolly cupgrass (Eriochloa villosa); settings: for Cupgrass, Woolly plant response rating (0 to 100 scale): 62 g ai/ha, postemergence, 0 is no effect, 100 is complete control; for Plant response rating, Cupgrass, Woolly: Postemergence
Procedure, shortened: as §1

kochia (Kochia scoparia) = settings: for Kochia plant response rating (0 to 100 scale): 62 g ai/ha, postemergence, 0 is no effect, 100 is complete control; for Plant response rating, Kochia: Postemergence
Procedure, shortened: as §1

[5] = system: blackgrass (Alopecurus myosuroides); settings: for Blackgrass plant response rating (0 to 100 scale): 62 g ai/ha, postemergence, 0 is no effect, 100 is complete control; for Plant response rating, Blackgrass: Postemergence
Procedure, shortened: as §1

[6] = system: johnsongrass (Sorghum halepense); settings: for Johnsongrass plant response rating (0 to 100 scale): 62 g ai/ha, postemergence, 0 is no effect, 100 is complete control; for Plant response rating, Johnsongrass: Postemergence
Procedure, shortened: as §1

[7] = system: morningglory (Ipomoea coccinea); settings: for Morningglory plant response rating (0 to 100 scale): 62 g ai/ha, postemergence, 0 is no effect, 100 is complete control; for Plant response rating, Morningglory: Postemergence
Procedure, shortened: as §1

[8] = system: cocklebur (Xanthium strumarium); settings: for Cocklebur plant response rating (0 to 100 scale): 62 g ai/ha, postemergence, 0 is no effect, 100 is complete control; for Plant response rating, Cocklebur: Postemergence
Procedure, shortened: as §1

[9] = system: velvetleaf (Abutilon theophrasti); settings: for Velvetleaf plant response rating (0 to 100 scale): 62 g ai/ha, postemergence, 0 is no effect, 100 is complete control; for Plant response rating, Velvetleaf: Postemergence
Procedure, shortened: as §1

[10] = system: goosegrass (Eleusine indica); settings: for Goosegrass plant response rating (0 to 100 scale): 62 g ai/ha, postemergence, 0 is no effect, 100 is complete control; for Plant response rating, Goosegrass: Postemergence
Procedure, shortened: as §1

[11] = system: Surinam grass (Brachiaria decumbens); settings: for Surinam Grass plant response rating (0 to 100 scale): 62 g ai/ha, postemergence, 0 is no effect, 100 is complete control; for Plant response rating, Surinam Grass: Postemergence
Procedure, shortened: as §1

[12] = system: downy bromegrass (Bromus tectorum); settings: for Bromegrass, Downy plant response rating (0 to 100 scale): 62 g ai/ha, postemergence, 0 is no effect, 100 is complete control; for Plant response rating, Bromegrass, Downy: Postemergence
Procedure, shortened: as §1

wild oat (Avena fatua) = settings: for Oat, Wild plant response rating (0 to 100 scale): 62 g ai/ha, postemergence, 0 is no effect, 100 is complete control; for Plant response rating, Oat, Wild: Postemergence
Procedure, shortened: as §1

[13] = system: green foxtail (Setaria viridis); settings: for Foxtail, Green plant response rating (0 to 100 scale): 62 g ai/ha, postemergence, 0 is no effect, 100 is complete control; for Plant response rating, Foxtail, Green: Postemergence
Procedure, shortened: as §1

[14] = 31 g ai/ha, 0 to 100 scale (0 no effect, 100 complete control)
[15] = 125 g ai/ha, scale 0 to 100 (0 no effect, 100 complete control)
[16] = 250 g ai/ha, scale 0 to 100 (0 no effect, 100 complete control)
[17] = 250 g ai/ha, scale 0 to 100 (0 no effect, 100 complete control), 13 to 15 days

COCCCn1c(-c2cccc(F)c2)ncc(C(=O)C2=C(O)CCCC2=O)c1=O [Compound 126]
85: Plant response rating, Crabgrass, Large [1, 15] | Plant response rating, Soybean (soybean (Glycine max); [15]) | Plant response rating, Foxtail, Giant [3, 15] | Plant response rating, Cupgrass, Woolly [4, 15] | Plant response rating, Kochia (kochia (Kochia scoparia); [16]) | Plant response rating, Johnsongrass [6, 15] | Morningglory plant response rating (0 to 100 scale) ([7]; 13 to 15 days) | Plant response rating, Goosegrass [10, 16] | Plant response rating, Surinam Grass [11, 15]
75: Plant response rating, Crabgrass, Large [1, 14] | Nutsedge, Yellow plant response rating (0 to 100 scale) ([2]; 13 to 15 days) | Soybean plant response rating (0 to 100 scale) (soybean (Glycine max); 13 to 15 days) | Cupgrass, Woolly plant response rating (0 to 100 scale) ([4]; 13 to 15 days) | Plant response rating, Morningglory [7, 14] | Plant response rating, Goosegrass [10, 15]
35: Plant response rating, Oat, Wild (wild oat (Avena fatua); [15])
50: Plant response rating, Oat, Wild (wild oat (Avena fatua); [16]) | Plant response rating, Foxtail, Green [13, 14]
15: Plant response rating, Cocklebur [8, 14] | Bromegrass, Downy plant response rating (0 to 100 scale) ([12]; 13 to 15 days)
100: Plant response rating, Morningglory [7, 15] | Plant response rating, Morningglory [7, 16]
10: Plant response rating, Corn (corn (Zea mays); [14]) | Plant response rating, Kochia (kochia (Kochia scoparia); [14]) | Oat, Wild plant response rating (0 to 100 scale) (wild oat (Avena fatua); 13 to 15 days)
5: Plant response rating, Blackgrass [5, 14] | Plant response rating, Bromegrass, Downy [12, 14] | Plant response rating, Oat, Wild (wild oat (Avena fatua); [14])
30: Corn plant response rating (0 to 100 scale) (corn (Zea mays); 13 to 15 days) | Plant response rating, Blackgrass [5, 15] | Plant response rating, Bromegrass, Downy [12, 15]
80: Plant response rating, Corn (corn (Zea mays); [16]) | Crabgrass, Large plant response rating (0 to 100 scale) ([1]; 13 to 15 days) | Plant response rating, Nutsedge, Yellow [2, 15] | Plant response rating, Nutsedge, Yellow [2, 16] | Foxtail, Giant plant response rating (0 to 100 scale) ([3]; 13 to 15 days) | Plant response rating, Cocklebur [8, 15] | Plant response rating, Velvetleaf [9, 14] | Surinam Grass plant response rating (0 to 100 scale) ([11]; 13 to 15 days) | Foxtail, Green plant response rating (0 to 100 scale) ([13]; 13 to 15 days)
95: Plant response rating, Velvetleaf [9, 15] | Plant response rating, Foxtail, Green [13, 16]
40: Plant response rating, Bromegrass, Downy [12, 16]
25: Kochia plant response rating (0 to 100 scale) (kochia (Kochia scoparia); 13 to 15 days) | Plant response rating, Kochia (kochia (Kochia scoparia); [15]) | Blackgrass plant response rating (0 to 100 scale) ([5]; 13 to 15 days)
55: Plant response rating, Corn (corn (Zea mays); [15])
70: Plant response rating, Soybean (soybean (Glycine max); [14]) | Plant response rating, Foxtail, Giant [3, 14] | Goosegrass plant response rating (0 to 100 scale) ([10]; 13 to 15 days) | Plant response rating, Surinam Grass [11, 14]
90: Plant response rating, Crabgrass, Large [1, 16] | Plant response rating, Foxtail, Giant [3, 16] | Plant response rating, Cupgrass, Woolly [4, 16] | Plant response rating, Johnsongrass [6, 16] | Velvetleaf plant response rating (0 to 100 scale) ([9]; 13 to 15 days) | Plant response rating, Foxtail, Green [13, 15]
65: Plant response rating, Nutsedge, Yellow [2, 14] | Plant response rating, Cupgrass, Woolly [4, 14] | Johnsongrass plant response rating (0 to 100 scale) ([6]; 13 to 15 days) | Plant response rating, Johnsongrass [6, 14] | Cocklebur plant response rating (0 to 100 scale) ([8]; 13 to 15 days) | Plant response rating, Goosegrass [10, 14]
45: Plant response rating, Blackgrass [5, 16]
98: Plant response rating, Soybean (soybean (Glycine max); [16]) | Plant response rating, Cocklebur [8, 16] | Plant response rating, Velvetleaf [9, 16] | Plant response rating, Surinam Grass [11, 16]

CCCn1c(-c2cccc(F)c2)ncc(C(=O)C2=C(O)CCCC2=O)c1=O [Compound 127]
70: Nutsedge, Yellow plant response rating (0 to 100 scale) ([2]; 13 to 15 days) | Johnsongrass plant response rating (0 to 100 scale) ([6]; 13 to 15 days)
85: Crabgrass, Large plant response rating (0 to 100 scale) ([1]; 13 to 15 days) | Foxtail, Giant plant response rating (0 to 100 scale) ([3]; 13 to 15 days) | Plant response rating, Foxtail, Giant [3, 15] | Plant response rating, Cupgrass, Woolly [4, 15] | Plant response rating, Cupgrass, Woolly [4, 17] | Plant response rating, Goosegrass [10, 17] | Plant response rating, Surinam Grass [11, 15] | Foxtail, Green plant response rating (0 to 100 scale) ([13]; 13 to 15 days)
75: Plant response rating, Corn (corn (Zea mays); [17]) | Plant response rating, Nutsedge, Yellow [2, 15] | Cupgrass, Woolly plant response rating (0 to 100 scale) ([4]; 13 to 15 days) | Plant response rating, Cupgrass, Woolly [4, 14] | Plant response rating, Cocklebur [8, 14] | Goosegrass plant response rating (0 to 100 scale) ([10]; 13 to 15 days) | Plant response rating, Goosegrass [10, 15] | Surinam Grass plant response rating (0 to 100 scale) ([11]; 13 to 15 days) | Plant response rating, Surinam Grass [11, 14] | Plant response rating, Foxtail, Green [13, 14]
45: Plant response rating, Kochia (kochia (Kochia scoparia); [14])
65: Plant response rating, Nutsedge, Yellow [2, 14] | Plant response rating, Johnsongrass [6, 14] | Plant response rating, Morningglory [7, 14] | Plant response rating, Goosegrass [10, 14]
98: Soybean plant response rating (0 to 100 scale) (soybean (Glycine max); 13 to 15 days) | Plant response rating, Soybean (soybean (Glycine max); [15]) | Plant response rating, Soybean (soybean (Glycine max); [17]) | Kochia plant response rating (0 to 100 scale) (kochia (Kochia scoparia); 13 to 15 days) | Plant response rating, Morningglory [7, 17]
40: Plant response rating, Blackgrass [5, 17] | Plant response rating, Bromegrass, Downy [12, 17]
20: Blackgrass plant response rating (0 to 100 scale) ([5]; 13 to 15 days) | Plant response rating, Bromegrass, Downy [12, 15]
60: Plant response rating, Oat, Wild (wild oat (Avena fatua); [17])
25: Corn plant response rating (0 to 100 scale) (corn (Zea mays); 13 to 15 days) | Plant response rating, Corn (corn (Zea mays); [15]) | Plant response rating, Blackgrass [5, 15] | Plant response rating, Oat, Wild (wild oat (Avena fatua); [15])
90: Plant response rating, Crabgrass, Large [1, 15] | Plant response rating, Foxtail, Giant [3, 17] | Plant response rating, Morningglory [7, 15] | Plant response rating, Velvetleaf [9, 14] | Plant response rating, Surinam Grass [11, 17] | Plant response rating, Foxtail, Green [13, 15]
100: Plant response rating, Kochia (kochia (Kochia scoparia); [15]) | Plant response rating, Kochia (kochia (Kochia scoparia); [17]) | Plant response rating, Cocklebur [8, 17] | Plant response rating, Velvetleaf [9, 15] | Plant response rating, Velvetleaf [9, 17]
80: Plant response rating, Crabgrass, Large [1, 14] | Plant response rating, Nutsedge, Yellow [2, 17] | Plant response rating, Foxtail, Giant [3, 14] | Plant response rating, Johnsongrass [6, 15] | Morningglory plant response rating (0 to 100 scale) ([7]; 13 to 15 days)
95: Plant response rating, Crabgrass, Large [1, 17] | Plant response rating, Soybean (soybean (Glycine max); [14]) | Plant response rating, Johnsongrass [6, 17] | Cocklebur plant response rating (0 to 100 scale) ([8]; 13 to 15 days) | Plant response rating, Cocklebur [8, 15] | Velvetleaf plant response rating (0 to 100 scale) ([9]; 13 to 15 days) | Plant response rating, Foxtail, Green [13, 17]
5: Plant response rating, Corn (corn (Zea mays); [14]) | Plant response rating, Blackgrass [5, 14] | Plant response rating, Bromegrass, Downy [12, 14] | Plant response rating, Oat, Wild (wild oat (Avena fatua); [14])
10: Bromegrass, Downy plant response rating (0 to 100 scale) ([12]; 13 to 15 days) | Oat, Wild plant response rating (0 to 100 scale) (wild oat (Avena fatua); 13 to 15 days)
